Reference: PubChem BioAssay AID328 (DTP/NCI, 2004)
Values joined by “and” are separate entries in the source; they are usually repeats but may differ in a detail not shown here. Equal entries are not always repeated. Toxic doses and inconclusive results are not listed.

System: BDF1 mice, P388 leukemia ip, median survival T/C
Test: NCI In Vivo Anticancer Drug Screen. Data for tumor model P388 Leukemia (intraperitoneal) in B6D2F1 (BDF1) mice
Conditions: endpoint: median survival time, higher = longer survival
In short: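 Read-out is survival of treated animals expressed relative to the vehicle group, as a T/C ratio.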

[1] = dose: 400.0 mg/kg/injection, schedule: Q01DX009 (ip), vehicle: Klucel (hydroxypropylcellulose) (HPC)
[2] = dose: 100.0 mg/kg/injection, schedule: Q01DX009 (ip), vehicle: saline with Tween-80
[3] = dose: 200.0 mg/kg/injection, schedule: Q01DX009 (ip), vehicle: saline with Tween-80
[4] = dose: 400.0 mg/kg/injection, schedule: Q01DX009 (ip), vehicle: saline with Tween-80

O=NN(CCCl)C(=O)Nc1ccc(NC(=O)N(CCCl)N=O)cc1 was tested, and the T/C (dose: 0.03 mg/kg/injection, schedule: Q04DX003 (ip), vehicle: Klucel (hydroxypropylcellulose) (HPC)) was 100 % of control, the T/C (dose: 0.06 mg/kg/injection, schedule: Q04DX003 (ip), vehicle: Klucel (hydroxypropylcellulose) (HPC)) was 108 % of control and the T/C (dose: 0.12 mg/kg/injection, schedule: Q01DX009 (ip), vehicle: Klucel (hydroxypropylcellulose) (HPC)) was 111 % of control. For the same molecule, the T/C (dose: 0.12 mg/kg/injection, schedule: Q04DX003 (ip), vehicle: Klucel (hydroxypropylcellulose) (HPC)) was 108 % of control, the T/C (dose: 0.25 mg/kg/injection, schedule: Q01DX009 (ip), vehicle: Klucel (hydroxypropylcellulose) (HPC)) was 177 % of control and the T/C (dose: 0.25 mg/kg/injection, schedule: Q04DX003 (ip), vehicle: Klucel (hydroxypropylcellulose) (HPC)) was 150 % of control. For the same molecule, the T/C (dose: 0.5 mg/kg/injection, schedule: Q01DX009 (ip), vehicle: Klucel (hydroxypropylcellulose) (HPC)) was 222 % of control, the T/C (dose: 0.5 mg/kg/injection, schedule: Q04DX003 (ip), vehicle: Klucel (hydroxypropylcellulose) (HPC)) was 154 % of control and the T/C (dose: 0.6 mg/kg/injection, schedule: Q04DX003 (ip), vehicle: Klucel (hydroxypropylcellulose) (HPC)) was 117 % of control. The T/C (dose: 1.0 mg/kg/injection, schedule: Q01DX009 (ip), vehicle: Klucel (hydroxypropylcellulose) (HPC)) was 94 % of control, the T/C (dose: 1.0 mg/kg/injection, schedule: Q04DX003 (ip), vehicle: Klucel (hydroxypropylcellulose) (HPC)) was 204 % of control and the T/C (dose: 1.5 mg/kg/injection, schedule: Q01DX009 (ip), vehicle: Klucel (hydroxypropylcellulose) (HPC)) was 254 % of control. For the same molecule, the T/C (dose: 1.6 mg/kg/injection, schedule: Q04DX003 (ip), vehicle: Klucel (hydroxypropylcellulose) (HPC)) was 152 % of control, the T/C (dose: 2.0 mg/kg/injection, schedule: Q04DX003 (ip), vehicle: Klucel (hydroxypropylcellulose) (HPC)) was 186 % of control and the T/C (dose: 2.5 mg/kg/injection, schedule: Q04DX003 (ip), vehicle: Klucel (hydroxypropylcellulose) (HPC)) was 160 % of control and 175 % of control. For the same molecule, the T/C (dose: 3.0 mg/kg/injection, schedule: Q01DX009 (ip), vehicle: Klucel (hydroxypropylcellulose) (HPC)) was 231 % of control, the T/C (dose: 3.0 mg/kg/injection, schedule: Q04DX003 (ip), vehicle: Klucel (hydroxypropylcellulose) (HPC)) was 186 % of control and the T/C (dose: 4.0 mg/kg/injection, schedule: Q04DX003 (ip), vehicle: Klucel (hydroxypropylcellulose) (HPC)) was 187 % of control. The T/C (dose: 6.0 mg/kg/injection, schedule: Q01DX009 (ip), vehicle: Klucel (hydroxypropylcellulose) (HPC)) was 272 % of control, the T/C (dose: 6.0 mg/kg/injection, schedule: Q04DX003 (ip), vehicle: Klucel (hydroxypropylcellulose) (HPC)) was 227 % of control and 187 % of control and 213 % of control and the T/C (dose: 9.0 mg/kg/injection, schedule: Q04DX003 (ip), vehicle: Klucel (hydroxypropylcellulose) (HPC)) was 190 % of control. The T/C (dose: 12.0 mg/kg/injection, schedule: Q04DX003 (ip), vehicle: Klucel (hydroxypropylcellulose) (HPC)) was 213 % of control, the T/C (dose: 12.5 mg/kg/injection, schedule: Q01DX009 (ip), vehicle: Klucel (hydroxypropylcellulose) (HPC)) was 300 % of control and the T/C (dose: 13.0 mg/kg/injection, schedule: Q04DX003 (ip), vehicle: Klucel (hydroxypropylcellulose) (HPC)) was 231 % of control and 259 % of control. For the same molecule, the T/C (dose: 20.0 mg/kg/injection, schedule: Q04DX003 (ip), vehicle: Klucel (hydroxypropylcellulose) (HPC)) was 245 % of control, the T/C (dose: 25.0 mg/kg/injection, schedule: Q01DX009 (ip), vehicle: Klucel (hydroxypropylcellulose) (HPC)) was 300 % of control and the T/C (dose: 25.0 mg/kg/injection, schedule: Q04DX003 (ip), vehicle: Klucel (hydroxypropylcellulose) (HPC)) was 272 % of control. For the same molecule, the T/C (dose: 30.0 mg/kg/injection, schedule: Q04DX003 (ip), vehicle: Klucel (hydroxypropylcellulose) (HPC)) was 250 % of control and 272 % of control, the T/C (dose: 44.0 mg/kg/injection, schedule: Q04DX003 (ip), vehicle: Klucel (hydroxypropylcellulose) (HPC)) was 250 % of control and the T/C (dose: 50.0 mg/kg/injection, schedule: Q01DX009 (ip), vehicle: Klucel (hydroxypropylcellulose) (HPC)) was 210 % of control. The T/C (dose: 50.0 mg/kg/injection, schedule: Q04DX003 (ip), vehicle: Klucel (hydroxypropylcellulose) (HPC)) was 254 % of control, the T/C (dose: 66.0 mg/kg/injection, schedule: Q04DX003 (ip), vehicle: Klucel (hydroxypropylcellulose) (HPC)) was 241 % of control and 250 % of control and the T/C (dose: 100.0 mg/kg/injection, schedule: Q04DX003 (ip), vehicle: Klucel (hydroxypropylcellulose) (HPC)) was 233 % of control and 254 % of control and 260 % of control. For the same molecule, the T/C (dose: 150.0 mg/kg/injection, schedule: Q01DX009 (ip), vehicle: Klucel (hydroxypropylcellulose) (HPC)) was 115 % of control, the T/C (dose: 150.0 mg/kg/injection, schedule: Q04DX003 (ip), vehicle: Klucel (hydroxypropylcellulose) (HPC)) was 175 % of control and the T/C (dose: 200.0 mg/kg/injection, schedule: Q04DX003 (ip), vehicle: Klucel (hydroxypropylcellulose) (HPC)) was 260 % of control and 272 % of control. For the same molecule, the T/C [1] was 115 % of control, the T/C (dose: 400.0 mg/kg/injection, schedule: Q04DX003 (ip), vehicle: Klucel (hydroxypropylcellulose) (HPC)) was 234 % of control and 177 % of control and the T/C (dose: 600.0 mg/kg/injection, schedule: Q04DX003 (ip), vehicle: Klucel (hydroxypropylcellulose) (HPC)) was 272 % of control.
In the case of C=CN1C(=O)NC(C)(CC(C)C)C1=O (configuration not stated), the T/C [2] is reported as 93 % of control, the T/C [3] is reported as 104 % of control and the T/C [4] is reported as 104 % of control.
For COC(OC)c1[nH]c(=S)[nH]c(=O)c1Cc1ccc(C)c(C)c1, the T/C [2] was 103 % of control, the T/C [3] was 96 % of control and the T/C [4] was 100 % of control.
In the case of CC1(C)CCCC(Cl)(C(Cl)c2ccccc2)C1=O (configuration not stated), the T/C (dose: 75.0 mg/kg/injection, schedule: Q01DX001 (ip), vehicle: other) is reported as 100 % of control, the T/C (dose: 150.0 mg/kg/injection, schedule: Q01DX001 (ip), vehicle: other) is reported as 95 % of control and the T/C (dose: 300.0 mg/kg/injection, schedule: Q01DX001 (ip), vehicle: other) is reported as 95 % of control.
For COC(=O)C1C(O)C(C)C(=O)C(C)/C=C\C=C(C)C(=O)Nc2c(C)c(OC(C)=O)c3c(c2O)C(=O)C(C)=C2OCOC(=C23)C(C)=CC(C)(O)C(O)C(C)C1O (configuration not stated), the T/C (dose: 100.0 mg/kg/injection, schedule: Q01DX009 (ip), vehicle: Klucel (hydroxypropylcellulose) (HPC)) was 101 % of control, the T/C (dose: 200.0 mg/kg/injection, schedule: Q01DX009 (ip), vehicle: Klucel (hydroxypropylcellulose) (HPC)) was 101 % of control and the T/C [1] was 101 % of control.
In the case of CC1NC(=O)C2Cc3ccc(O)c(c3)Oc3ccc(cc3)C(O)C(C(=O)N2C)N(C)C(=O)C(C)NC(=O)C(Cc2ccc(O)cc2)N(C)C(=O)C(C)NC1=O (configuration not stated), the T/C (dose: 1.0 mg/kg/injection, schedule: Q01DX009 (ip), vehicle: saline with Tween-80) is reported as 98 % of control, the T/C (dose: 2.0 mg/kg/injection, schedule: Q01DX009 (ip), vehicle: saline with Tween-80) is reported as 94 % of control and the T/C (dose: 4.0 mg/kg/injection, schedule: Q01DX009 (ip), vehicle: saline with Tween-80) is reported as 107 % of control. For the same molecule, the T/C (dose: 8.0 mg/kg/injection, schedule: Q01DX009 (ip), vehicle: saline with Tween-80) was 110 % of control and the T/C (dose: 16.0 mg/kg/injection, schedule: Q01DX009 (ip), vehicle: saline with Tween-80) was 101 % of control.
For CC(=O)Nc1cccc(N(CCOS(C)(=O)=O)CCOS(C)(=O)=O)c1, the T/C (dose: 13.0 mg/kg/injection, schedule: Q04DX003 (ip), vehicle: saline sonified) was 95 % of control, the T/C (dose: 20.0 mg/kg/injection, schedule: Q04DX003 (ip), vehicle: saline sonified) was 95 % of control and the T/C (dose: 30.0 mg/kg/injection, schedule: Q04DX003 (ip), vehicle: saline sonified) was 100 % of control.
CCOC(=O)C1C2OC(=O)C(C(=O)C2N=Nc2ccc(-c3ccc(N=NC4C(=O)C5C(=O)OC4C(C(=O)OCC)C5C4CC=CCC4)cc3)cc2)C1C1CC=CCC1 (configuration not stated) was tested, and the T/C [2] was 109 % of control, the T/C (dose: 100.0 mg/kg/injection, schedule: Q04DX003 (ip), vehicle: saline with Tween-80) was 110 % of control and the T/C [3] was 100 % of control. For the same molecule, the T/C (dose: 200.0 mg/kg/injection, schedule: Q04DX003 (ip), vehicle: saline with Tween-80) was 105 % of control, the T/C [4] was 109 % of control and the T/C (dose: 400.0 mg/kg/injection, schedule: Q04DX003 (ip), vehicle: saline with Tween-80) was 115 % of control.
For CC(C)c1nsc(N)c1C(N)=O, the T/C (dose: 50.0 mg/kg/injection, schedule: Q01DX009 (ip), vehicle: saline with Tween-80) was 92 % of control and the T/C [2] was 96 % of control.
